Reference: ChEMBL document CHEMBL3091271, “Discovery of triazine mimetics as potent antileishmanial agents” (ACS Med Chem Lett, 2013)
Activity calls are given as the source filed them. The calls are words filed in the database; no cut-off is given here.

Experiments:
[1] = (§1) Selectivity index, ratio of CC50 to African green monkey Vero cells to IC50 for amastigote stage of Leishmania donovani MHOM/IN/80/Dd8; assay type: functional
Leishmania donovani [2] = assay: Antileishmanial activity against amastigote stage of Leishmania donovani MHOM/IN/80/Dd8 infected in mouse J-774A.1 cells after 72 hrs by luciferase reporter gene assay; assay type: functional, organism-based; conditions: MHOM/IN/80/Dd8, J774.A1, 72 h
[3] = Cytotoxicity against African green monkey Vero cells assessed as cell viability after 72 hrs by MTT assay; assay type: cell-based; conditions: chlorocebus sabaeus
Leishmania donovani [4] = assay: Antileishmanial activity against amastigote stage of Leishmania donovani MHOM/IN/80/Dd8 infected in golden hamster assessed as inhibition of parasite multiplication in splen at 50 mg/kg/day, ip administered for 5 days measured on day 7 by Giemsa staining relative to control; assay type: functional; conditions: MHOM/IN/80/Dd8, ip, route intraperitoneal
Syrian golden hamster = assay: Toxicity in golden hamster infected with amastigote stage of Leishmania donovani MHOM/IN/80/Dd8 assessed as appearance of abnormal behavior at 50 mg/kg/day, ip measured for 5 days; assay type: organism-based, Mesocricetus auratus; design: route intraperitoneal; conditions: in vivo, 120 h
Vero = assay: as §1; assay type: functional
[5] = Immunostimulatory activity in Leishmania infected mouse J774A1 cells assessed as upregulation of IL-12 level at IC50 measured at 48 hrs by sandwich ELISA; assay type: functional, cell-based; conditions: J774.A1
[6] = Immunostimulatory activity in Leishmania infected mouse J774A1 cells assessed as upregulation of IL-12 level at IC50 measured at 24 hrs by sandwich ELISA relative to untreated infected cell; assay type: functional, cell-based; conditions: J774.A1
[7] = Immunostimulatory activity in Leishmania infected mouse J774A1 cells assessed as upregulation of TNF-alpha level at IC50 measured at 48 hrs by sandwich ELISA; assay type: functional, cell-based; conditions: J774.A1
J774.A1 [8] = assay: Immunostimulatory activity in Leishmania infected mouse J774A1 cells assessed as increase in nitric oxide production at IC50 measured at 48 hrs by sandwich ELISA; assay type: functional, cell-based
J774.A1 [9] = assay: Immunostimulatory activity in Leishmania infected mouse J774A1 cells assessed as downregulation of IL-10 level at IC50 measured at 48 hrs by sandwich ELISA; assay type: functional, cell-based
[10] = Immunostimulatory activity in Leishmania infected mouse J774A1 cells assessed as upregulation of TNF-alpha level at IC50 measured at 24 hrs by sandwich ELISA relative to untreated infected cell; assay type: functional, cell-based; conditions: J774.A1
J774.A1 [11] = assay: Immunostimulatory activity in Leishmania infected mouse J774A1 cells assessed as downregulation of TGF-beta level at IC50 measured at 24 hrs by sandwich ELISA relative to untreated infected cell; assay type: functional
J774.A1 [12] = assay: Immunostimulatory activity in Leishmania infected mouse J774A1 cells assessed as increase in nitric oxide production at IC50 measured at 24 hrs by sandwich ELISA relative to untreated infected cell; assay type: functional
J774.A1 [13] = assay: Immunostimulatory activity in Leishmania infected mouse J774A1 cells assessed as downregulation of IL-10 level at IC50 measured at 24 hrs by sandwich ELISA; assay type: functional, cell-based
J774.A1 [14] = assay: Immunostimulatory activity in Leishmania infected mouse J774A1 cells assessed as downregulation of TGF-beta level at IC50 measured at 48 hrs by sandwich ELISA; assay type: functional, cell-based

IC50 (Leishmania donovani [2]) [µM]	Compound	Ratio CC50/IC50 [1]	CC50 at 72 h [3] [µM]	other results
7.52	c1ccc(Nc2nc(NCCCCOc3nc(Nc4ccccc4)nc(N4CCc5ccccc5C4)n3)nc(N3CCc4ccccc4C3)n2)cc1	>53.19	> 400	
1.7	c1ccc(Nc2nc(NCCCCOc3nc(NCCCN4CCOCC4)nc(Nc4ccccc4)n3)nc(NCCCN3CCOCC3)n2)cc1	8.11	13.8	
2.65	CCCNc1nc(Nc2ccccc2)nc(OCCCCNc2nc(Nc3ccccc3)nc(NC3CC3)n2)n1	>150.94	> 400	
> 40	c1ccc(Nc2nc(NCCCCOc3nc(Nc4ccccc4)nc(NC4CC4)n3)nc(NC3CC3)n2)cc1			
8.26	CCCNc1nc(NCCCCOc2nc(Nc3ccccc3)nc(NC3CC3)n2)nc(Nc2ccccc2)n1	2.2	18.2	
1.33	CN1CCN(c2nc(NCCCCOc3nc(Nc4ccccc4)nc(N4CCN(C)CC4)n3)nc(Nc3ccccc3)n2)CC1	15.08	20.1	
2.91	c1ccc(Nc2nc(NCCCCOc3nc(NCCN4CCOCC4)nc(Nc4ccccc4)n3)nc(NCCN3CCOCC3)n2)cc1	39.61	115	
> 40	c1ccc(Nc2nc(NCCCCCOc3nc(Nc4ccccc4)nc(N4CCOCC4)n3)nc(N3CCOCC3)n2)cc1			
0.86	CCN1CCN(c2nc(NCCCCOc3nc(Nc4ccccc4)nc(N4CCN(CC)CC4)n3)nc(Nc3ccccc3)n2)CC1	18.87	16.2	
10.3	Clc1nc(NCCCCOc2nc(Cl)nc(Nc3ccccc3)n2)nc(Nc2ccccc2)n1	0.75	7.74	
8.98	Clc1nc(NCCCCCOc2nc(Cl)nc(Nc3ccccc3)n2)nc(Nc2ccccc2)n1	1.9	17.1	
3.15	c1ccc(Nc2nc(NCCCCOc3nc(Nc4ccccc4)nc(N4CCOCC4)n3)nc(N3CCOCC3)n2)cc1	87.5	276	
8.98	c1ccc(Nc2nc(NCCCCOc3nc(Nc4ccccc4)nc(N4CCCc5ccccc54)n3)nc(N3CCCc4ccccc43)n2)cc1	1.9	17.1	

Continued, compound first:

Compound	IC50 (Leishmania donovani [2]) [µM]	Ratio CC50/IC50 [1]	CC50 at 72 h [3] [µM]	other results
CCCCNc1nc(NCCCCOc2nc(NCCCC)nc(Nc3ccccc3)n2)nc(Nc2ccccc2)n1	3.21	>124.61	> 400	
N=C(N)c1ccc(OCCCCCOc2ccc(C(=N)N)cc2)cc1 [PENTAMIDINE]	13.7	6.27	85.9	
CCCCCCCCCCCCCCCCOP(=O)([O-])OCC[N+](C)(C)C [MILTEFOSINE]	8.1	6.56		
CC(C)(C)Nc1nc(NCCCCOc2nc(Nc3ccccc3)nc(NC(C)(C)C)n2)nc(Nc2ccccc2)n1	0.77	257.48	198	inhibition in vivo at 50 mg/kg/day (Leishmania donovani [4]): 62.6%; Activity (Syrian golden hamster): Non-toxic
CCCCCNc1nc(NCCCCOc2nc(NCCCCC)nc(Nc3ccccc3)n2)nc(Nc2ccccc2)n1	6.46	>61.92	> 400	
CC(C)Nc1nc(NCCCCOc2nc(Nc3ccccc3)nc(NC(C)C)n2)nc(Nc2ccccc2)n1	3.51	>113.96	> 400	
Sodium stibogluconate				Ratio CC50/IC50 (Vero): 8.56
CCCNc1nc(NCCCCOc2nc(NCCC)nc(Nc3ccccc3)n2)nc(Nc2ccccc2)n1	1.99	108.58	216	Activity [5]: inactive; fold change (FC) [6]: 3; Activity [7]: inactive; Activity (J774.A1 [8]): inactive; Activity (J774.A1 [9]): inactive; fold change (FC) [10]: 2; inhibition in vivo at 50 mg/kg/day (Leishmania donovani [4]): 74.4%; fold change (FC) (J774.A1 [11]): 1.8; Activity (Syrian golden hamster): Non-toxic; fold change (FC) (J774.A1 [12]): 2; Activity (J774.A1 [13]): Active; Activity (J774.A1 [14]): inactive
CCCNc1nc(NCCCCCOc2nc(NCCC)nc(Nc3ccccc3)n2)nc(Nc2ccccc2)n1	> 40			
